Assay results from US20250025520A1, “MICROBE-BASED MODULATION OF SEROTONIN BIOSYNTHESIS” (The Regents of the University of California, priority 2014, published 2025).

Legend:
[1] = tested on: colonic enterochromaffin cells (ECs); assay: Immunofluorescence staining of 5-HT and CgA in colon; format: in vivo, mouse
Method: (§1) Mouse colon was cut into distal, medial and proximal sections, and 1 cm regions of the distal, medial and proximal small intestine were fixed in Bouin's solution (Sigma Aldrich) overnight at 4° C., washed and stored in 70% ethanol. Intestinal samples were then paraffin-embedded and cut into 10 um longitudinal sections by Pacific Pathology, Inc (San Diego, CA). Sections were stained using standard procedures. Briefly, slides were deparaffinized, and antigen retrieval was conducted for 1 hr in a 95° C. water bath in 10 mM sodium citrate, pH 6.0 or DAKO solution (Agilent Technologies). […] For 5-HT and CgA staining, numbers of positively-stained puncta were scored blindly, normalized to total area of intestinal mucosa using ImageJ software (NIH) (Schneider et al., Nature Methods 9:671-675 (2012)), and then averaged across biological replicates. For calretinin, cfos and 5HT4 staining, fluorescence intensity for individual stains was quantified and normalized to total area of intestinal submucosa and muscularis externa using ImageJ software. Colocalization was measured and analyzed using the Coloc2 plug-in for Fiji software described in Schindelin et al., Nature Methods 9:676-682 (2012). […]

Tail bleed assay = format: in vivo, mouse; conditions: Sp-colonized mice, intrarectal PCPA
Method: Mice were anesthetized with isoflurane and the distal 6 mm portion of the tail was transected using a fresh razor blade. The tail was placed immediately at a 2 cm depth into a 50 mL conical tube containing saline pre-warmed to 37° C. (Liu et al., World J. Exp. Med. 2:30-36 (2012)). Time to bleeding cessation was recorded, with continued recording if re-bleeding occurred within 15 seconds of initial cessation and a maximum total bleed time of 5 minutes. Mice were sacrificed by CO2 immediately after the assay.

colon 5-HT = assay: Colon 5-HT by ELISA, normalized to total protein; format: in vivo, mouse; conditions: for effects of a single rectal injection on raising colon 5-HT levels: time course
Description: (§2) Blood samples were collected by cardiac puncture and spun through SST vacutainers (Becton Dickinson) for serum separation or PST lithium hepararin vacutainers (Becton Dickinson, Franklin Lakes, NJ) for plasma separation. The entire length of the colon or 1 cm regions of the distal, medial and proximal colon of the small intestine were washed in PBS, flushed with PBS to remove luminal contents, and sonicated on ice in 10 s intervals at 20 mV in ELISA standard buffer supplemented with ascorbic acid (Eagle Biosciences, Nashua, NH). Serotonin levels were detected in sera and supernatant of tissue homogenates by ELISA according to the manufacturer's instructions (Eagle Biosciences, Nashua, NH). Readings from tissue samples were normalized to total protein content as detected by BCA assay (Thermo Pierce). Data compiled across multiple experiments are expressed as 5-HT concentrations normalized to SPF controls within each experiment.

TPH1 = assay: Intestinal qRT-PCR, colonic TPH1 expression relative to GAPDH; format: in vivo, mouse
Method: The entire length of the mouse colon, or 1 cm regions of the distal, medial and proximal of the mouse small intestine were washed in PBS, flushed with PBS to remove luminal contents, and homogenized in ice-cold Trizol for RNA isolation using the RNeasy Mini Kit with on-column genomic DNA-digest (Qiagen) and cDNA synthesis using iScript (Biorad). qRT-PCR was performed on an ABI 7900 thermocycler using SYBR green master mix with Rox passive reference dye (Roche) and validated primer sets obtained from Primerbank (Harvard).

[2] = tested on: intrinsic afferent primary neurons (IPANs) of the myenteric plexus; assay: c-fos and calretinin (Calb2) colocalization; format: in vivo, mouse; conditions: Sp-colonized mice treated with PCPA
Method: as §1

SLC6A4 = assay: Intestinal qRT-PCR, colonic SLC6A4 expression relative to GAPDH; format: in vivo, mouse; conditions: Sp-colonized mice, PCPA intrarectally
platelets = assay: Platelet aggregation assay, collagen stimulation, flow cytometry; format: in vivo, mouse; conditions: Sp-colonized mice, colonic PCPA injection
Method: Blood samples were collected by cardiac puncture, diluted with a 2× volume of HEPES medium (132 mM NaCl, 6 mM KCl, 1 mM MgSO4, 1.2 mM KH2PO4, 20 mM HEPES, 5 mM glucose; pH 7.4) and centrifuged through PST lithium hepararin vacutainers (Becton Dickinson). Expression of platelet activation markers was measured by flow cytometry (Nieswandt et al., Methods Mol. Biol. 272:255-268 (2004); Ziu et al., J. Mol. Cell. Cardiol. 52:1112-1121 (2012)). Briefly, PRP samples were supplemented with 1 mM CaCl2, and 1×10^6 platelets were stimulated with 10 μg/ml type-1 HORM collagen (Chronolog), and stained with anti-JON/APE, anti-P-selectin-FITC (Emfret Analytics), anti-CD63-PE (Biologend), anti-CD41-FITC (BD Biosciences) and anti-CD9-APC (Abcam) for 15 min at room temperature. Samples were then washed in PBS, fixed with 0.5% formaldehyde and analyzed using a FACS Calibur flow cytometer (BD Biosciences). Platelet aggregation assays were conducted according to methods described in (De Cuyper et al., Blood 121:070-e80 (2013)). Briefly, 4×10^6 platelets were stained separately with CD9-APC or CD9-PE (Abcam) for 15 minutes at room temperature and then washed with HEPES medium. Labeled platelets were mixed 1:1 and incubated for 15 minutes at 37° C., with shaking at 600 rpm. Platelets were then stimulated with 10 μg/ml type-1 collagen for 2 min and fixed in 0.5% formaldehyde for flow cytometry. […]

serum 5-HT = assay: Serum 5-HT by ELISA; format: in vivo, mouse
Description: as §2

RIN14B cells = assay: RIN14B in vitro culture, 5-HT release; conditions: for 5-HT in RIN14B chromaffin cell cultures: α-tocopherol 8 uM, butyrate 100 uM, cholate 75 uM, deoxycholate 25 uM, p-aminobenzoate 1 uM, propionate 100 uM, tyramine 100 uM
TPH1 in RIN14B cells = assay: RIN14B in vitro culture, TPH1 expression by qRT-PCR; conditions: colonic luminal filtrate, or 15 uM ionomycin; relative to vehicle-treated controls
[3] = GF mice colonized with hSp, PCPA treatment
[4] = Sp-colonized GF mice, PCPA intrarectally twice daily for 3 days
[5] = GF mice, oral supplementation in water 1.5 mg/ml, 2 weeks
[6] = GF mice, intrarectal injection: deoxycholate 125 mg/kg, α-tocopherol 2.25 mg/kg, PABA 1.37 μg/kg, tyramine 0.137 mg/kg, oleanolate 0.46 mg/kg, vs vehicle

With `N[C@@H](Cc1ccc(Cl)cc1)C(=O)O` (racemic) [PCPA, parachlorophenylalanine] the “5-HT staining in colonic ECs” value [1, 3] was “blocking increases”, the “5-HT staining in ECs” value [1, 4] was “sufficiently blocks” and the “Sp effect on bleeding time” value (Tail bleed assay) was “attenuated”. For the same molecule, the “colon 5-HT” value (colon 5-HT; [3]) was “blocking increases”, the “colon 5-HT levels” value (colon 5-HT; [4]) was “sufficiently blocks the ability of Sp to elevate” and the “colonic TPH1 expression” value (TPH1; Sp-colonized mice, PCPA intrarectally) was “compensatory increase in colonic TPH1”. The IPAN activation [2] was “decreases IPAN activation”, the “colonic SLC6A4 expression” value (SLC6A4) was “decrease in SLC6A4” and the “Sp effect on platelet aggregation” value (platelets) was “attenuated”. For the same molecule, the “serum 5-HT” value (serum 5-HT; [3]) was “blocking increases” and the “serum 5-HT levels” value (serum 5-HT; [4]) was “sufficiently blocks the ability of Sp to elevate”.
With `N[C@@H](Cc1c[nH]c2ccc(O)cc12)C(=O)O` [5-HTP, 5-hydroxytryptophan] the “colon 5-HT” value (colon 5-HT; [5]) was “sufficiently ameliorates deficits” and the “serum 5-HT” value (serum 5-HT; [5]) was “sufficiently ameliorates deficits”.
With `Nc1ccc(C(=O)O)cc1` [PABA, p-aminobenzoate] the “colon 5-HT” value (colon 5-HT; [6]) was “Increases”, the “serum 5-HT” value (serum 5-HT; [6]) was “Increases” and the “5-HT in RIN14B chromaffin cell cultures” value (RIN14B cells) was “elevate 5-HT”.
For `N[C@@H](Cc1c[nH]c2ccccc12)C(=O)O` [Trp, tryptophan], the “colon 5-HT” value (colon 5-HT; [5]) was “no restorative effect” and the “serum 5-HT” value (serum 5-HT; [5]) was “no restorative effect”.
In the case of `C[C@H](CCC(=O)O)[C@H]1CC[C@H]2[C@@H]3[C@H](O)C[C@@H]4C[C@H](O)CC[C@]4(C)[C@H]3C[C@H](O)[C@]12C` [cholate], the “5-HT in RIN14B chromaffin cell cultures” value (RIN14B cells) is reported as “elevate 5-HT”.
With `C[C@H](CCC(=O)O)C[C@H](C)C[C@H](C)C(=O)/C=C(\O)[C@H](C)C[C@H](C)C/C=C/[C@@H](C)[C@@H](O)[C@@H](C)[C@@H](O)C[C@@H]1CC[C@@](C)([C@H]2CC[C@@](C)([C@@H](C)O)O2)O1` [ionomycin, reference compound] the “TPH1 expression in RIN14B cells” value (TPH1 in RIN14B cells) was “no effect on TPH1 expression” and the “5-HT released from RIN14B cells” value (RIN14B cells; colonic luminal filtrate 1 hr at 37° C., or 15 uM ionomycin, relative to vehicle-treated controls) was “stimulates 5-HT release”.
With `CC1(C)CC[C@]2(C(=O)O)CC[C@]3(C)C(=CC[C@@H]4[C@@]5(C)CC[C@H](O)C(C)(C)[C@@H]5CC[C@]43C)[C@@H]2C1` [oleanolate] the “colon 5-HT” value (colon 5-HT; [6]) was “no statistically significant effect” and the “serum 5-HT” value (serum 5-HT; [6]) was “no statistically significant effect”.
With `CCC(=O)O` [propionate] the “5-HT in RIN14B chromaffin cell cultures” value (RIN14B cells) was “elevate 5-HT”.
For `NCCc1ccc(O)cc1` [tyramine], the “colon 5-HT” value (colon 5-HT; [6]) was “Increases”, the “serum 5-HT” value (serum 5-HT; [6]) was “Increases” and the “5-HT in RIN14B chromaffin cell cultures” value (RIN14B cells) was “elevate 5-HT”.
For `Cc1c(C)c2c(c(C)c1O)CC[C@@](C)(CCC[C@H](C)CCC[C@H](C)CCCC(C)C)O2` [α-tocopherol], the “colon 5-HT” value (colon 5-HT; [6]) was “Increases”, the “effects of a single rectal injection on raising colon 5-HT levels” value (colon 5-HT; GF mice) was “weak and transient” and the “serum 5-HT” value (serum 5-HT; [6]) was “Increases”. The “5-HT in RIN14B chromaffin cell cultures” value (RIN14B cells) was “elevate 5-HT”.
In the case of Bacteroides fragilis, the “serum 5-HT levels” value (serum 5-HT; GF mice colonized, monoassociated or conventionalized, compared with GF and SPF controls) is reported as “deficits in serum 5-HT that are comparable to those seen in GF mice”.
With deoxycholate the “colon 5-HT” value (colon 5-HT; [6]) was “sufficiently increases”, the “effects of a single rectal injection on raising colon 5-HT levels” value (colon 5-HT; GF mice) was “weak and transient” and the “colonic TPH1 expression” value (TPH1; GF mice, intrarectal deoxycholate 125 mg/kg, 1 hr post injection) was “elevations in colonic TPH1 expression”. The “serum 5-HT” value (serum 5-HT; [6]) was “sufficiently increases” and the “5-HT in RIN14B chromaffin cell cultures” value (RIN14B cells) was “elevate 5-HT”.
